Values joined by “and” are separate entries in the source; they are usually repeats but may differ in a detail not shown here. Equal values may be shown once. Read-outs that look alike come from different tables or passages of the source.
Tested on: MA15-CoV
Design: species or system mice
Settings: mouse, in vivo; for decline in day 4 lung viral titers: sc

COc1cccc2[nH]c(C(=O)N[C@@H](CC(C)C)C(=O)N[C@@H](C[C@@H]3CCNC3=O)C(=O)CO)cc12 [parent compound, N-((1S)-1-{[((1S)-3-hydroxy-2-oxo-1-{[(3S)-2-oxopyrrolidin-3-yl]methyl}propyl)amino]carbonyl}-3-methylbutyl)-4-methoxy-1H-indole-2-carboxamide]
reduction of lung viral titers on day 4 post-infection: ≈ 2.0 log 10 and ≈ 1.5 log 10 and ~1.0 log 10
weight loss and histopathologic signs of disease: decreased
weight loss caused by the virus: reduced
decline in day 4 lung viral titers (30 mg/kg): ≈ 1.5 log 10
decline in day 4 lung viral titers (100 mg/kg): ≈ 3 log 10
decline in day 4 lung viral titers (300 mg/kg): ≥ 3.5 log 10
